In paper PMC10794144, “A novel antibiotic class targeting the lipopolysaccharide transporter” (Nature, 2024):
Values after ≈ are worked out from the molar mass of the structure shown.

Columns and labels:
A. baumannii [1] = experiment: Neutropaenic mouse thigh infection model; type: in vivo; conditions: 24 h
Procedure: An intramuscular inoculation of a bacterial suspension of approximately 10^6 CFU per thigh was used to induce the infection. Treatment started 2 h after infection. […] In the pneumonia model, an intratracheal inoculation of approximately 10^7 CFU per lung was used to induce the infection. Treatment started 2 h after infection. […] Standard of care antibiotic was tested at a single dose in both infection models. GraphPad Prism 8 was used for graphical presentation and to analyse data.

A. baumannii [2] = experiment: microbe, parasite or virus in culture; conditions: CAMHB; for MIC: MCPs read at 80% inhibition
Procedure: MIC determinations were performed using the broth microdilution method and in line with CLSI guidelines M07 and M100 (refs. [37],[38]). Bacterial inocula were prepared by diluting a 0.5 McFarland suspension in CAMHB or lysogeny broth (LB) specifically for A. baylyi isolates. […] MIC values of all of the tested antibiotics were read as the lowest compound concentration inhibiting bacterial growth by naked eye or beyond which the OD600 ceased to decrease.

A. baumannii ACC01073 = experiment: Neutropaenic mouse lung infection (pneumonia) model; type: in vivo; conditions: 120 mg/kg/day q12h
Procedure: An intramuscular inoculation of a bacterial suspension of approximately 10^6 CFU per thigh was used to induce the infection. Treatment started 2 h after infection. […] Thigh bacterial burden was determined after 24 h of treatment. In the pneumonia model, an intratracheal inoculation of approximately 10^7 CFU per lung was used to induce the infection. Treatment started 2 h after infection. […] Lung bacterial burden was determined after 24 h treatment. Standard of care antibiotic was tested at a single dose in both infection models. GraphPad Prism 8 was used for graphical presentation and to analyse data.

## C[C@@H](O)[C@H]1C(=O)N2C(C(=O)O)=C(S[C@@H]3CN[C@H](C(=O)N(C)C)C3)[C@H](C)[C@H]12 [MRP]
A. baumannii [1]; A. baumannii ACC00535 (APV00535), neutropenic mice, MERO 100 mg/kg, average of 8 samples
  log CFU/thigh, average: 8.52 log CFU/thigh
A. baumannii [1]; A. baumannii ACC00535 (APV00535), neutropenic mice, MERO 100 mg/kg, change of average log CFU/thigh vs start of therapy (2 h)
  delta 2 hr; Δ log (vs. veh 2hrs): 2.37

## CN(C)c1cc(NC(=O)CNC(C)(C)C)c(O)c2c1C[C@H]1C[C@H]3[C@H](N(C)C)C(O)=C(C(N)=O)C(=O)[C@@]3(O)C(O)=C1C2=O [tigecycline, reference compound]
A. baumannii [2]; Acinetobacter baumannii, 129 clinical isolates
  MIC90: 8 µg/mL (≈ 13.7 µM)
A. baumannii [2]; Acinetobacter baumannii, ACC00445
  MIC: 2 µg/mL (≈ 3.41 µM)
A. baumannii [2]; Acinetobacter baumannii, ACC00535
  MIC: 0.5 µg/mL (≈ 0.854 µM)
A. baumannii [2]; Acinetobacter baumannii, ACC01073
  MIC: 4 µg/mL (≈ 6.83 µM)
A. baumannii [2]; Acinetobacter baumannii, ACC01077
  MIC: 2 µg/mL (≈ 3.41 µM)
A. baumannii [2]; Acinetobacter baumannii, ACC01085 / AR0307
  MIC: 4 µg/mL (≈ 6.83 µM)
A. baumannii [2]; Acinetobacter baumannii, ATCC17978, ATCC 17978
  MIC: 0.5 µg/mL (≈ 0.854 µM)
A. baumannii [2]; Acinetobacter baumannii, ATCC19606, ATCC 19606
  MIC: 1 µg/mL (≈ 1.71 µM)
A. baumannii [2]; Acinetobacter baumannii, ATCCBAA747, ATCC BAA-747
  MIC: 0.25 µg/mL (≈ 0.427 µM)
A. baumannii [2]; Acinetobacter baumannii, ROB08701
  MIC: 1 µg/mL (≈ 1.71 µM)
A. baumannii [2]; Acinetobacter baumannii, ROB08702
  MIC: 4 µg/mL (≈ 6.83 µM)
A. baumannii [2]; Acinetobacter baumannii, ROB08703
  MIC: 16 µg/mL (≈ 27.3 µM)
A. baumannii [2]; Acinetobacter baumannii, ROB08704
  MIC: 0.5 µg/mL (≈ 0.854 µM)
A. baumannii [2]; Acinetobacter baumannii, ROB08705
  MIC: 1 µg/mL (≈ 1.71 µM)
A. baumannii [2]; Acinetobacter baumannii, ROB08706
  MIC: 8 µg/mL (≈ 13.7 µM)
A. baumannii [2]; Acinetobacter baumannii, ROB08707
  MIC: 0.5 µg/mL (≈ 0.854 µM)
A. baumannii [2]; Acinetobacter baumannii, ROB08708
  MIC: 1 µg/mL (≈ 1.71 µM)
A. baumannii [2]; Acinetobacter baumannii, ROB08709
  MIC: 1 µg/mL (≈ 1.71 µM)
A. baumannii [2]; Acinetobacter baumannii, ROB08710
  MIC: 1 µg/mL (≈ 1.71 µM)
A. baumannii ACC01073
  ΔLog CFU/lungs vs A/0h: 0.70
A. baumannii ACC01073; n = 6
  CFU/lungs, average: 4.23E+08
  Log CFU/lungs, average (bacterial load): 8.39

## colistin [reference compound]
A. baumannii [2]; ACC00445
  MIC: 0.25 µg/mL
A. baumannii [2]; ACC00535
  MIC: 0.5 µg/mL
A. baumannii [2]; ACC01073
  MIC: >16 µg/mL
A. baumannii [2]; ACC01077
  MIC: 16 µg/mL
A. baumannii [2]; ACC01085 / AR0307
  MIC: 4 µg/mL
A. baumannii [2]; ATCC 17978
  MIC: 0.25 µg/mL
A. baumannii [2]; ATCC 19606
  MIC: 0.5 µg/mL
A. baumannii [2]; ATCC BAA-747
  MIC: 0.5 µg/mL
A. baumannii [2]; ROB08701
  MIC: 1 µg/mL
A. baumannii [2]; ROB08702
  MIC: 2 µg/mL
A. baumannii [2]; ROB08703
  MIC: 0.5 µg/mL
A. baumannii [2]; ROB08704
  MIC: 2 µg/mL
A. baumannii [2]; ROB08705
  MIC: 0.5 µg/mL
A. baumannii [2]; ROB08706
  MIC: 0.25 µg/mL
A. baumannii [2]; ROB08707
  MIC: 2 µg/mL
A. baumannii [2]; ROB08708
  MIC: 0.25 µg/mL
A. baumannii [2]; ROB08709
  MIC: 1 µg/mL
A. baumannii [2]; ROB08710
  MIC: 2 µg/mL
A. baumannii [1]; A. baumannii ACC01085, neutropenic mice, 60 mg/kg/day q8h, summary table, same as average Log CFU/Thigh
  Bacterial Load (average): 3.39
